We go through three compounds from ChEMBL document CHEMBL1201862, “PubChem BioAssay data set” (2004).

The target in experiment [1] is T1, Low molecular weight phosphotyrosine protein phosphatase (Homo sapiens, UniProt P24666). In kind it is functional. The following applies: read-out: IC50_Mean.
In experiment [2] the target is T1, Low molecular weight phosphotyrosine protein phosphatase. It counts as functional. The conditions noted are these: read-out: IC50_Mean. The source holds these as a separate data set.
The target in experiment [3] is T2, Tyrosine-protein phosphatase non-receptor type 22 (Homo sapiens, UniProt Q9Y2R2).
T2 sequence (Q9Y2R2 whole entry): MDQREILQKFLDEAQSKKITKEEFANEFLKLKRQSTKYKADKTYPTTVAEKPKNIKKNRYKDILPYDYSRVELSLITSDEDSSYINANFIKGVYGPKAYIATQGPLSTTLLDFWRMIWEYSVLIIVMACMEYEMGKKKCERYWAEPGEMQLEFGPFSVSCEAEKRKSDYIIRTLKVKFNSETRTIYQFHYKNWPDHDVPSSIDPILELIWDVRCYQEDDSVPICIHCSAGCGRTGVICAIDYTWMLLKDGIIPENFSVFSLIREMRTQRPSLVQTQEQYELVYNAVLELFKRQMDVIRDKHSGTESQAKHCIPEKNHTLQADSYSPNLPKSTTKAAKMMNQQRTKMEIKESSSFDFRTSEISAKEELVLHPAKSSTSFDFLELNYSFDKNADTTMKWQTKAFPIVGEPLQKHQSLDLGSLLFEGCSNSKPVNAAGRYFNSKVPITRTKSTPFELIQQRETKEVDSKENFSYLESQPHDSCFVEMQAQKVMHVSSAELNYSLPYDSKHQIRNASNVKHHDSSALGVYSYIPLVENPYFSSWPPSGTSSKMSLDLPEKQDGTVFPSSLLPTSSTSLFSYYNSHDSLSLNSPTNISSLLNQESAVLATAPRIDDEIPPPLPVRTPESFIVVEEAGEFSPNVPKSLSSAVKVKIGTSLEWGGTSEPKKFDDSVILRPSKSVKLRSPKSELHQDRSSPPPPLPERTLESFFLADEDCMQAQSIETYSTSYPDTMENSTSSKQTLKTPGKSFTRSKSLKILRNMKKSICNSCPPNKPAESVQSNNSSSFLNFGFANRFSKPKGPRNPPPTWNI
Put plainly: PTPN22 enzyme inhibitors – biochemical, fluorescence, LYP catalytic domain, selectivity assay for LMPTP inhibitor project, dose response (AID 652006). The conditions noted are these: read-out: IC50_Mean. In kind it is functional.

Experiment [4] concerns the target T3, Carboxy-terminal domain RNA polymerase II polypeptide A small phosphatase 1 (Homo sapiens, UniProt Q9GZU7).
T3 sequence (Q9GZU7 whole entry): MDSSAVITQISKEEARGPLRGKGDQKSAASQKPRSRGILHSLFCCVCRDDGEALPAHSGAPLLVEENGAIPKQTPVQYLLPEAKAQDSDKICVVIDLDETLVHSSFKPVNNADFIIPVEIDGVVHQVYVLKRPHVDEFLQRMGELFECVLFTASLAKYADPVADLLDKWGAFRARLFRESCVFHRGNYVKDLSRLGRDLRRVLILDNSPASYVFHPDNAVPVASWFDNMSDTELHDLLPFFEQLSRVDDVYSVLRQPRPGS
The experiment is described as follows: CTDSP1 inhibitors, concentration-response, biochemical, absorbance readout, ultra-high-throughput screen actives (AID 540297). It counts as functional.

The nature of experiment [5]: cytotoxicity toward MDA-MB-231 breast cancer cells – cell-based, CellTiter-Glo luminescence, cherry-pick, cytotoxicity control for RAD54 inhibitor project, dose response (AID 651692). It counts as functional. In general terms: Cellular ATP, detected with luciferase, serves as a proxy for viable cell number.
Experiment [6] deals with Streptococcus sp. 'group A'. The experiment is described as follows: Streptococcus pyogenes SK(-)GAS viability under kanamycin – luminescence, BacTiterGlo, confirmation, counter-screen for streptokinase expression inhibitor project, dose response (AID 1900). It counts as functional, organism-based.
The subject of the next experiment is Streptococcus. Put plainly: GAS UMAA2166 growth inhibition – luminescence, BacTiterGlo, counter-screen for streptokinase expression inhibitor project, dose response (AID 1915).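 Further: potency for reduction of bacterial viability or growth.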 In kind it is functional, organism-based.
Another experiment deals with Bcl-2-related protein A1 (Mus musculus, UniProt Q07440). It counts as functional.
The nature of experiment [7]: NIH3T3 cell viability loss – ATP luminescence, mouse fibroblasts, counter-screen, dose response (AID 2010).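 Further: cells exposed to compound for about 90 hours before reading.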 In kind it is functional, cell-based. Background: The purpose of a counterscreen is to sort out artefacts and off-target activity.
In experiment [8] the target is T4, Ubiquitin-conjugating enzyme E2 N (Homo sapiens, UniProt P61088).
T4 sequence (P61088 whole entry): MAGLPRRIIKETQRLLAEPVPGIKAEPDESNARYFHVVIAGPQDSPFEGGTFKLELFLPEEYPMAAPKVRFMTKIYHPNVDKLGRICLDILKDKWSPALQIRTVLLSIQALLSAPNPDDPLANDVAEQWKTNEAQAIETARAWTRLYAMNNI
It counts as functional.

Experiment [9] deals with T4, Ubiquitin-conjugating enzyme E2 N. It counts as functional. This is another data set of the same source.
Experiment [10] in a line: Trypanosoma cruzi growth suppression in host cells – NIH3T3 host cells, beta-gal luminescence, confirmation (AID 2044).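 Further: intracellular parasites grown in NIH/3T3 mouse fibroblasts as host cells; luminescent beta-galactosidase reporter signal from transgenic T. cruzi replicating inside host cells; inhibitors lower the luminescence signal.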 It counts as functional, cell-based.
In experiment [11] the target is T5, DNA repair and recombination protein RAD54-like (Homo sapiens, UniProt Q92698).
T5 sequence (Q92698 whole entry): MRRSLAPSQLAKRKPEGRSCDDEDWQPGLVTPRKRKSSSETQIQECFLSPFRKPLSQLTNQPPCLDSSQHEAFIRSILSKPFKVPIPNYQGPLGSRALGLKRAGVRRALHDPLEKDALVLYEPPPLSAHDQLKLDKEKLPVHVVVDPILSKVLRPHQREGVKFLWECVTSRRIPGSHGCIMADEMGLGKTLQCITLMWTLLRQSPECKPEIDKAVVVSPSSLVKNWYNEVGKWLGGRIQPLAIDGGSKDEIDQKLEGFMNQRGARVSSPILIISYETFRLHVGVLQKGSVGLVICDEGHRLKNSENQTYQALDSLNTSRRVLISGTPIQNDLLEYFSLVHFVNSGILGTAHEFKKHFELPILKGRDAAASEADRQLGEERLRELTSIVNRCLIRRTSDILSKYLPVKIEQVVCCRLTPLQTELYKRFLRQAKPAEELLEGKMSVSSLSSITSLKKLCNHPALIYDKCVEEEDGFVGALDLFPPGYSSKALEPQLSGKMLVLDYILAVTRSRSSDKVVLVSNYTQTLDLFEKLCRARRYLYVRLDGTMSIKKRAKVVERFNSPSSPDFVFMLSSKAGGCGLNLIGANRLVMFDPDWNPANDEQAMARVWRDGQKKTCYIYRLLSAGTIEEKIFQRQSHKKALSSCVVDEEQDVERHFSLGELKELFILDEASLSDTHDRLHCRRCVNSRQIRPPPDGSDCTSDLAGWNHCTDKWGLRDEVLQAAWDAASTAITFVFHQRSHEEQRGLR
The experiment is described as follows: RAD54 Holliday junction migration blockers – biochemical, fluorescence, cherry-picked samples, dose series, confirmation (AID 651657). It counts as functional.

The nature of experiment [12]: acridine orange displacement from DNA – biochemical, fluorescence polarization, cherry-pick, artefact control for RAD54 inhibitor project, dose response (AID 651673). In kind it is functional. On the technique in general: In fluorescence polarisation assays a small probe gives low polarisation when free and higher when bound to something large.
Experiment [13] deals with T6, Sentrin-specific protease 1 (Homo sapiens, UniProt Q9P0U3).
T6 sequence (Q9P0U3 whole entry): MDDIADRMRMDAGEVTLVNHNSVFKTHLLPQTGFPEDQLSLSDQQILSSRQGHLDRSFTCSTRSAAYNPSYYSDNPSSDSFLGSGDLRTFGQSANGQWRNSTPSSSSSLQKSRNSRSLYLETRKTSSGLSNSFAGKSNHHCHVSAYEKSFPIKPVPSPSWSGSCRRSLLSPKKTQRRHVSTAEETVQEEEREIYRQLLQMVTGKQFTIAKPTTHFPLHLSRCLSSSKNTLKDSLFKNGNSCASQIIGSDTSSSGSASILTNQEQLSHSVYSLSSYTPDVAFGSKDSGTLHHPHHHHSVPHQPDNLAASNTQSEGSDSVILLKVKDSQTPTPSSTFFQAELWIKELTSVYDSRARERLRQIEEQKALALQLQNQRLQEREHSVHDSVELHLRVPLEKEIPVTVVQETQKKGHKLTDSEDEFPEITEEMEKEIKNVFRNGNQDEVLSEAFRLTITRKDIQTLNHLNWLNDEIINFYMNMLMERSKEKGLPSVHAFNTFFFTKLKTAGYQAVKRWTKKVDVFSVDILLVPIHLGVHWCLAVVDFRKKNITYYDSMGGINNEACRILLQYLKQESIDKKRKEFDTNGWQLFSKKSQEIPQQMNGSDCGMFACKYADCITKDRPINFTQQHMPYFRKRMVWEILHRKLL
Put plainly: SENP1 catalytic domain blockers, concentration series – biochemical, kinetic FRET, dose response (AID 651697). In kind it is functional. The following applies: read-out: IC50_Mean.

The target of experiment [14] is T6, Sentrin-specific protease 1. Put plainly: Dose response confirmation of small molecule inhibitors of the catalytic domain of the SUMO protease, SENP1 in a FRET assay. It counts as functional. The following applies: read-out: IC50_Mean.
For experiment [15], the target named is T7, DNA repair protein RAD52 homolog (Homo sapiens, UniProt P43351).
T7 sequence (P43351 whole entry): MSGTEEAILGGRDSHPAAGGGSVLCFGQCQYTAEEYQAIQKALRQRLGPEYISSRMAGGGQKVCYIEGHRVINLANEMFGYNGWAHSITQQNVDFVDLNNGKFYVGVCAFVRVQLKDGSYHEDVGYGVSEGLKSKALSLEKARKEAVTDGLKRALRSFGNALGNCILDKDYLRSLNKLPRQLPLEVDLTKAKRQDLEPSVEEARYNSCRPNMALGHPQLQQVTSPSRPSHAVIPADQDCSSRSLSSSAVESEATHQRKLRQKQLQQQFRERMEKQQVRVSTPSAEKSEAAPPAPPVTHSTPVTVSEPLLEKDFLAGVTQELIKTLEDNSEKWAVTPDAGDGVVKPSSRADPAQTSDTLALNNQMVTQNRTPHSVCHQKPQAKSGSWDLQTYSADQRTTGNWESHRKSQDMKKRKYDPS
It counts as functional, biochemical.

The target in experiment [16] is SWI/SNF-related matrix-associated actin-dependent regulator of chromatin subfamily A member 2 (Homo sapiens, UniProt P51531). The experiment is described as follows: Luminescence-based cell-based high throughput dose response assay to identify activators of the function of SWI/SNF related, matrix associated, actin dependent regulator of chromatin, subfamily a, member 2 (SMARCA2, BRM). In kind it is functional.

Experiment [17] in a line: Counterscreen for activators of the function of SWI/SNF related, matrix associated, actin dependent regulator of chromatin, subfamily a, member 2 (SMARCA2, BRM): Luminescence-based cell-based high throughput dose response assay to identify non-selective compounds using the VP16 reporter assay. It counts as functional.
A further experiment deals with Vero. The experiment is described as follows: cells. It counts as functional, Chlorocebus sabaeus. The conditions noted are these: Chlorocebus sabaeus, Vero.

The structures appear in SMILES notation. Calls of active or inactive are those of the source.

T1 sequence (P24666 whole entry): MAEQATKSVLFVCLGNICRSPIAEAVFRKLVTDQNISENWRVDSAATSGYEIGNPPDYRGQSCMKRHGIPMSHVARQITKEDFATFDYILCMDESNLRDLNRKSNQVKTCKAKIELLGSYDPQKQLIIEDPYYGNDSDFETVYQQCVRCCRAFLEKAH
Sequence of SWI/SNF-related matrix-associated actin-dependent regulator of chromatin subfamily A member 2 (P51531 whole entry): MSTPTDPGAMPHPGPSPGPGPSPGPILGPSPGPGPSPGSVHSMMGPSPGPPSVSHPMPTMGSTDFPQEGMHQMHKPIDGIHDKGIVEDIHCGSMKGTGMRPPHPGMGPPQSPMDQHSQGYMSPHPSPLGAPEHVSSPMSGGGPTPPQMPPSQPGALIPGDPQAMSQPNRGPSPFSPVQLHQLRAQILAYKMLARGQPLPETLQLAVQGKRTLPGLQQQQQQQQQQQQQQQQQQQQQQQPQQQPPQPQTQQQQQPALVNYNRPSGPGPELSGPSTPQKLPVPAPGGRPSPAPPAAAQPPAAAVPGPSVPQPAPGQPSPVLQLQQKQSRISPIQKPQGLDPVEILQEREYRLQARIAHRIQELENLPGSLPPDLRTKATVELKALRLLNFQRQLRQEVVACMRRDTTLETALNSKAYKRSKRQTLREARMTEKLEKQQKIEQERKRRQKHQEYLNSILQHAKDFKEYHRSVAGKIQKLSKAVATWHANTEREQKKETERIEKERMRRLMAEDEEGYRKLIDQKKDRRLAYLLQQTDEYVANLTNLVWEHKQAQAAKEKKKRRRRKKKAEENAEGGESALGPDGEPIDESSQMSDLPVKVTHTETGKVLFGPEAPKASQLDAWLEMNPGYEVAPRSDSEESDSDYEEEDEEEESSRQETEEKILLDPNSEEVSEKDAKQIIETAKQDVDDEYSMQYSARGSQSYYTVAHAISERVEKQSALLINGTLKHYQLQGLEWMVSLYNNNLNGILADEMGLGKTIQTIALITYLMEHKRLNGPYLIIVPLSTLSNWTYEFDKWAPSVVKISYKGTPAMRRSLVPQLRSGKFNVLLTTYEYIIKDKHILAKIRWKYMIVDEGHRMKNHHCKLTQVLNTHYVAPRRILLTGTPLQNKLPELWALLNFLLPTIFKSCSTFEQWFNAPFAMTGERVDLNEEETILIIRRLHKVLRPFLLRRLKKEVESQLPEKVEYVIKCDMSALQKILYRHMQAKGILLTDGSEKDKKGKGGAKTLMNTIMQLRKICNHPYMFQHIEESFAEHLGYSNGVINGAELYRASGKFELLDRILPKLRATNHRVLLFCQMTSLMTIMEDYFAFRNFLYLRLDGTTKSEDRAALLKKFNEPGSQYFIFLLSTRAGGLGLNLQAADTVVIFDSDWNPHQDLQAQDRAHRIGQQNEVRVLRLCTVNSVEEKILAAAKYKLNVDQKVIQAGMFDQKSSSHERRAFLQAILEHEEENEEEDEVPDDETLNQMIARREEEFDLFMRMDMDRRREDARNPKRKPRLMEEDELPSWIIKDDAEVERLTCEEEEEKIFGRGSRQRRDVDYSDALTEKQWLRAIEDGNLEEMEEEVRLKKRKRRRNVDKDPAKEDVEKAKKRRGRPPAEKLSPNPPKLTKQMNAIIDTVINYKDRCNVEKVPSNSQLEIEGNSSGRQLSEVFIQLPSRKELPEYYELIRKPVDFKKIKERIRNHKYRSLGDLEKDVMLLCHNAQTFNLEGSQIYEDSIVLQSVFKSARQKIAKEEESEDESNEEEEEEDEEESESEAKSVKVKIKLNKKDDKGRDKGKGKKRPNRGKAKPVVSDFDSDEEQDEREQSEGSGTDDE
Sequence of Bcl-2-related protein A1 (Q07440 whole entry): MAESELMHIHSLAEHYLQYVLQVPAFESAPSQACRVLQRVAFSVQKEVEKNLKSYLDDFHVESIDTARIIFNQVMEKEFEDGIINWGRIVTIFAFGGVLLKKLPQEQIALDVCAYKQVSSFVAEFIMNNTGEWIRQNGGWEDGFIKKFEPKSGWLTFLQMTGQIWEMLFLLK

As for `O=C(CCN1C(=O)/C(=C/c2ccc3c(c2)OCO3)SC1=S)Nc1ccc(C(=O)O)cc1`, the IC50 was 8.74 µM (active) in [1], 16.2 µM (active) in [2], 12.9 µM (active) in [3] and 2.3 µM (active) in experiment [4].
One may read the AC50 as the concentration at which the activity in the assay is half-maximal. For orientation: EC50 means the concentration at which the effect is half-maximal. Turning to `CN(C)CCCn1c(SCC(=O)Nc2nc(-c3cccc(Br)c3)cs2)nc2ccccc2c1=O`, the AC50 is 13.9 µM (active) in experiment [5] and 95.9 µM (active) in [11]. Besides, the EC50 is 3.17 µM (active) in [6], 6.99 µM (active) in the experiment with Streptococcus, 4.52 µM (active) in experiment [7] and 1.66 µM (active) in experiment [10]. In addition, the IC50 on Bcl-2-related protein A1 is 13.1 µM (active); in [8], 5.29 µM (active); in experiment [9], 5.58 µM (active).
The term CC50 denotes the concentration that lowers cell viability or growth by half. Regarding `CCN(CC)CCNc1ccc(CO)c2oc3cc(Cl)ccc3c(=O)c12`, the AC50 in experiment [12] is 63.1 µM (active); in experiment [15] it was 12.5 µM (active); in experiment [11] it was 10.2 µM (active). The values for the IC50 in experiment [13] and in [14] were 19.8 µM (active) and 24 µM (inactive), respectively. Also, the EC50 in experiment [16] and in [17] was > 91.2 µM (inactive) each time. Besides, in the experiment on Vero, the CC50 is 16.7 µM (active).
